Results: PMC8584173, “The Cytotoxic Effect of Copper (II) Complexes with Halogenated 1,3-Disubstituted Arylthioureas on Cancer and Bacterial Cells” (International Journal of Molecular Sciences, 2021)

Tests used:
[1] = tested on: SW480 (human primary colon cancer); assay: MTT cytotoxicity assay, SW480; assay type: cell-based; conditions: SW480, 72 h
Procedure: (§1) The human primary (SW480), metastatic (SW620) colon cancer, metastatic prostate cancer (PC3) and human immortal keratinocyte (HaCaT) cell lines were purchased from the American Type Culture Collection (ATCC, Rockville, USA). The cells were cultured in medium according to protocols (MEM for SW480 and SW620, RPMI 1640 for PC3 and DMEM for HaCaT cells) supplemented with 10% fetal bovine serum (FBS), penicillin (100 U/mL) and streptomycin (100 μg/mL) and cultured in 37 °C/ 5% CO2 humidified incubator. The cells were cultured until appropriate confluence was achieved (80–90%). Next, they were harvested by treatment with 0.25% trypsin (Gibco Life Technologies, USA) and used for studies.
(§2) Cells without studied compounds in medium were used as a control.
(§3) The cell viability was assessed by determination of MTT salt (3-(4,5-dimethylthiazol-2-yl)-2,5-diphenyltetrazolium bromide) conversion by mitochondrial dehydrogenase. MTT assay was performed as previously described. Experiments were repeated three times. Cell viability was presented as a percentage of MTT reduction in the treated cells versus the control cells. Number of viable cells cultured without studied compounds was assumed to be 100%. Decreased relative MTT level means decreased cell viability. Thiourea complexes with the highest cytotoxic potential assessed by MTT determination (with the lowest IC50) were chosen for subsequent assessments of cytotoxicity mechanisms.

[2] = tested on: HaCaT (human immortal keratinocyte cell line); assay: MTT cytotoxicity assay, HaCaT; assay type: cell-based; conditions: HaCaT normal cells, 72 h
Procedure: as §1, §2, §3

[3] = tested on: S. epidermidis ATCC 12228; assay: MIC, twofold serial microdilution; assay type: cell-based, Staphylococcus epidermidis; conditions: S. epidermidis ATCC 12228, 18 h, 35 °C
Procedure: (§4) The antimicrobial activity of the compounds was tested on Gram-positive bacteria (Staphylococcus aureus NCTC 4163, Staphylococcus aureus ATCC 25923, Staphylococcus aureus ATCC 6538, Staphylococcus aureus ATCC 29213, Staphylococcus epidermidis ATCC 12228, Staphylococcus epidermidis ATCC 35984), Gram-negative rods (Escherichia coli ATCC 10538, Escherichia coli ATCC 25922, Pseudomonas aeruginosa ATCC 15442, Pseudomonas aeruginosa ATCC 27863) and yeasts (Candida albicans ATCC 10231, Candida albicans ATCC 90028, Candida parapsilosis ATCC 22019). Hospital methicillin-resistant strains of Staphylococcus aureus and Staphylococcus epidermidis were obtained from the collection of the Department of Pharmaceutical Microbiology, Medical University of Warsaw, Poland.
(§5) Antifungal activities were assessed using Mueller–Hinton agar + 2% glucose and 0.5 µg/mL methylene blue dye medium. Sterile filter paper discs (9 mm diameter, Whatman Number 3 chromatography paper) were dripped with tested compound solutions (in dimethylsulfoxide, DMSO) to load 400 μg of a given compound per disc. Dry discs were placed on the surface of appropriate agar medium. The results (diameter of the growth inhibition zone) were read after 18 h of incubation at 35 °C. Minimal inhibitory concentration (MIC) was tested by the twofold serial microdilution method (in 96-well microtiter plates) using Mueller–Hinton broth medium (Beckton Dickinson) for bacteria or RPMI-1640 medium for Candida species, according to CLSI guidelines. The stock solution of tested agent was prepared in DMSO and diluted in sterile water. […] The final inoculum of all studied microorganisms was 10^5 CFU/ mL^−1 (colony forming units per ml). Minimal inhibitory concentrations (the lowest concentration of a tested agent that prevents visible growth of a microorganism) were read after 18 h (bacteria) or 24 h (yeasts) of incubation at 35 °C.

[4] = tested on: S. epidermidis ATCC 35984; assay: MIC, twofold serial microdilution; assay type: cell-based, Staphylococcus epidermidis; conditions: S. epidermidis ATCC 35984, 18 h, 35 °C
Procedure: as §4, §5

E. coli ATCC 25922 = assay: MIC, twofold serial microdilution; assay type: cell-based, Escherichia coli; conditions: E. coli ATCC 25922, 18 h, 35 °C
Procedure: as §4, §5

E. coli NCTC 10538 = assay: MIC, twofold serial microdilution; assay type: cell-based, Escherichia coli; conditions: E. coli NCTC 10538, 18 h, 35 °C
Procedure: as §4, §5

P. aeruginosa ATCC 15442 = assay: MIC, twofold serial microdilution; assay type: cell-based, Pseudomonas aeruginosa; conditions: P. aeruginosa ATCC 15442, 18 h, 35 °C
Procedure: as §4, §5

P. aeruginosa ATCC 27853 = assay: MIC, twofold serial microdilution; assay type: cell-based, Pseudomonas aeruginosa; conditions: P. aeruginosa ATCC 27853, 18 h, 35 °C
Procedure: as §4, §5

C. albicans ATCC 10231 = assay: MIC, twofold serial microdilution; assay type: cell-based, Candida albicans; conditions: C. albicans ATCC 10231, 24 h, 35 °C
Procedure: as §4, §5

C. albicans ATCC 90028 = assay: MIC, twofold serial microdilution; assay type: cell-based, Candida albicans; conditions: C. albicans ATCC 90028, 24 h, 35 °C
Procedure: as §4, §5

S. aureus 498 = assay: MIC, hospital MRSA strain; assay type: cell-based, Staphylococcus aureus; conditions: hospital MRSA S. aureus 498
Procedure: as §4, §5

S. aureus 514 = assay: MIC, hospital MRSA strain; assay type: cell-based, Staphylococcus aureus; conditions: hospital MRSA S. aureus 514
Procedure: as §4, §5

S. aureus 522 = assay: MIC, hospital MRSA strain; assay type: cell-based, Staphylococcus aureus; conditions: hospital MRSA S. aureus 522
Procedure: as §4, §5

S. aureus 568 = assay: MIC, hospital MRSA strain; assay type: cell-based, Staphylococcus aureus; conditions: hospital MRSA S. aureus 568
Procedure: as §4, §5

S. aureus 585 = assay: MIC, hospital MRSA strain; assay type: cell-based, Staphylococcus aureus; conditions: hospital MRSA S. aureus 585
Procedure: as §4, §5

[5] = tested on: hospital S. epidermidis (MRSE); assay: MIC, hospital S. epidermidis; assay type: cell-based, Staphylococcus epidermidis; conditions: S. epidermidis 424, 471, 511, 515 and 431–433 isolates
Procedure: as §4, §5

[6] = tested on: Bacillus subtilis H17 (rec+); assay: Bacillus subtilis rec-assay, H17; assay type: cell-based; conditions: B. subtilis H17; 256 µg per disc (NOQ 2 µg per disc)
Procedure: (§6) DNA-damaging activity of compounds was tested by rec-assay using two genetically modified Bacillus subtilis strains: M45 (rec^−) and H17 (rec^+). Tested compounds were dissolved in DMSO, and 10 µL of each solution was dripped onto sterile cotton discs (Rotilabo) to load 256 µg of a given compound per 9 mm disc. Discs were placed on the surface nutrient agar plates (Difco), inoculated with 100 µL of bacterial overnight culture and incubated […] at 35 °C. After incubation, the growth inhibition zones were measured. […] Results of the genotoxicity test were estimated after 18 h of incubation at 35 °C by comparing the diameter of the inhibition zone on the B. subtilis M45 (rec^−) strain with that on the B. subtilis H17 (rec^+) strain.

[7] = tested on: Bacillus subtilis M45 (rec−); assay: Bacillus subtilis rec-assay, M45; assay type: cell-based; conditions: B. subtilis M45; 256 µg per disc (NOQ 2 µg per disc)
Procedure: as §6

| SMILES | IC50 [1] [µM] | IC50 [2] [µM] | MIC [3] [µg/mL] | MIC [4] [µg/mL] | MIC (E. coli ATCC 25922) [µg/mL] | MIC (E. coli NCTC 10538) [µg/mL] | MIC (P. aeruginosa ATCC 15442) [µg/mL] | MIC (P. aeruginosa ATCC 27853) [µg/mL] | MIC (C. albicans ATCC 10231) [µg/mL] | MIC (C. albicans ATCC 90028) [µg/mL] | MIC (S. aureus 498) [µg/mL] | MIC (S. aureus 514) [µg/mL] | MIC (S. aureus 522) [µg/mL] | MIC (S. aureus 568) [µg/mL] | MIC (S. aureus 585) [µg/mL] | times more effective than the reference chemotherapeutic (ciprofloxacin) [5] | inhibition zone diameter [6] [mm] | inhibition zone diameter [7] [mm] |
| --- | --- | --- | --- | --- | --- | --- | --- | --- | --- | --- | --- | --- | --- | --- | --- | --- | --- | --- |
| O=[N+]([O-])c1cc([N+]2=C(Nc3ccc(F)c(Cl)c3)[S][Cu-2]23[S]C(Nc2ccc(F)c(Cl)c2)=[N+]3c2ccc(Cl)c([N+](=O)[O-])c2)ccc1Cl [Compound 4, Copper (II) complex with 1-(3-chloro-4-fluorophenyl)-3-(4-chloro-3-nitrophenyl)thiourea] | 19.2 ± 1.1 | 121 ± 5.2 | 4 | 4 | 128 | 128 | 128 | 128 | 128 | 128 | 4 | 4 | 4 | 4 | 4 | 2–16 times | 16 | 18 |
| O=[N+]([O-])c1cc([N+]2=C(Nc3cccc(Br)c3)[S][Cu-2]23[S]C(Nc2cccc(Br)c2)=[N+]3c2ccc(Cl)c([N+](=O)[O-])c2)ccc1Cl [Compound 2, Copper (II) complex with 1-(3-bromophenyl)-3-(4-chloro-3-nitrophenyl)thiourea] | 24.3 ± 2.6 | 167 ± 2.3 | 16 | 16 | 128 | 128 | 128 | 128 | 64 | 64 | 8 | 8 | 8 | 8 | 8 | 2–16 times | 17 | 19 |
